Assay results reported in patent US6054441A, “Oxypurine nucleosides and their congeners, and acyl derivatives thereof, for improvement of hematopoiesis” (priority 1995, dated 2000).

Columns and labels:
Format in all cases: in vivo, Balb/C mice
[1] = system: bone marrow cells; experiment: Colony forming units in bone marrow of mice recovering from cyclophosphamide (Example 40); conditions: 2.5 μmoles/mouse/day i.p.
Protocol: Seventy-two Balb/C female mice weighing approximately 20 grams each were given cyclophosphamide (275 mg/kg) by intraperitoneal (i.p.) injection. Twenty-four hours later and each day thereafter, mice received a 0.4 ml i.p. injection of either physiological saline (control) or palmitoylguanosine (2.5 μmoles/mouse/day in 0.2% Tween 80). On days 3, 5, 7, and 10 following CP administration 6 animals from each group were sacrificed by cervical dislocation, and the left femur of each animal obtained by sterile means. The bone marrow cells were then flushed from the femurs with McCoy's 5a Modified medium using a 23-gauge needle. Cells from femurs in the same group were pooled, dispersed by briefly vortexing, and counted using a hemocytometer. Cell suspensions were added to McCoy's Modified 5a medium containing 15% bovine calf serum, 1x Kanamycin, 0.3% agar, and 3% endotoxin-stimulated serum. […] Each group was plated in quintuplicate. After 7 days in culture (at 37° in 5% CO2 and humidified air) aggregates of 50 cells or more ("colonies") were counted using a dissecting microscope at 25x.

[2] = system: hematopoietic recovery after cyclophosphamide; experiment: Timing of administration, hematopoietic recovery after cyclophosphamide (Example 41); conditions: day 7
Protocol: Cyclophosphamide (CP) (275 mg/kg, i.p.) was administered to 81 Balb/C female mice weighing approximately 20 grams each. Twenty-four hours later treatment was begun. Mice were given a 0.4 ml i.p. injection of either physiological saline (controls), Tween 80 (0.2%), or palmitoylguanosine (5 μmoles/mouse/day in 0.2% Tween 80). The timing of the treatments was varied within the groups. The control group was given saline on days 1-6. The mice receiving Tween 80 were treated either on days 1-4, 4-6 or 1-6. Palmitoylguanosine-treated mice were treated either on days 1-2, 1-4, 3-5, 4-6 or 1-6. If a group of mice received no Tween 80 or palmitoylguanosine on a given day, saline was administered by i.p. injection. Thus, there were 9 groups of 9 animals in all. On day 7 following CP administration all of the animals were bled and then sacrificed by cervical dislocation. Spleens were removed and weighed, and complete blood cell counts performed.

[3] = system: hematopoietic recovery after 5-fluorouracil; experiment: Hematopoietic recovery after 5-fluorouracil (Example 42)
Protocol: 5-fluorouracil (5-FU) (150 mg/kg, i.p.) was administered to forty Balb/C female mice weighing approximately 20 grams each. Twenty-four hours later and each day thereafter for a total of 8 days, mice were given a 0.4 ml i.p. injection of either physiological saline (controls) or 5'-O-palmitoylguanosine (2.5 μmoles/mouse/day in 0.2% Tween 80). On days 7 and 14 following 5-FU administration half of the animals from each group were bled and then were sacrificed by cervical dislocation. Spleens were removed and weighed, and complete blood cells counts performed.

[4] = system: hematopoietic recovery after 5-fluorouracil; experiment: Hematopoietic recovery after 5-fluorouracil (Example 43)
Protocol: 5-fluorouracil (5-FU) (150 mg/kg,i.p.) was administered to fifty-four Balb/C female mice weighing approximately 20 grams each. Twenty-four hours later and each day thereafter for a total of 7 days, mice were given a 0.4 ml i.p. injection of either physiological saline (controls) or palmitoylguanosine (2.5 μmoles/mouse/day in 0.2% Tween 80). On days 8, 10 and 12 following administration of 5-FU nine animals from each group were bled and then sacrificed by cervical dislocation. Spleens were removed and weighed, and complete blood cell counts performed.

[5] = system: hematopoiesis in normal mice; experiment: Hematopoiesis in normal mice (Example 44)
Protocol: Normal, otherwise untreated, female Balb/C mice weighing approximately 20 grams each received a total of 4 or 9 0.4 ml intraperitoneal injections (one per day) of either Tween-80 (0.2%) (controls), palmitoylguanosine (2.5 μmoles/mouse/day), or palmitoyldeoxyinosine (2.5 μmoles/mouse/day). Twenty-four hours after the 4th or 9th treatment, groups of 5 or 6 animals from each of the 3 groups were bled and then sacrificed by cervical dislocation. Spleens were removed and weighed, and complete blood cell counts performed.

[6] = system: hematopoietic recovery after cyclophosphamide; experiment: Hematopoietic recovery after cyclophosphamide (Example 47)
Protocol: Cyclophosphamide (CP) (275 mg/kg, i.p.) was administered to 48 Balb/C female mice weighing approximately 20 grams each. Twenty-four hours later and each day thereafter for a total of 6 days, mice were given a 0.4 ml i.p. injection of either physiological saline (controls), benzoylguanosine (2.5 μmoles/mouse/day in 0.2% Tween 80), or palmitoylguanosine (2.5 μmoles/mouse/day in 0.2% Tween 80). On days 7 and 10 following CP administration 8 animals from each of the 3 groups were bled and then were sacrificed by cervical dislocation. Spleens were removed and weighed, and complete blood cell counts performed.

[7] = system: hematopoietic recovery after cyclophosphamide; experiment: Hematopoietic recovery after cyclophosphamide (Example 50); conditions: day 5; 2 μmoles/mouse
Protocol: Cyclophosphamide (CP) (275 mg/kg, i.p.) was administered to 96 Balb/C female mice weighing approximately 20 grams each. Twenty-four hours later and each day thereafter mice were given a 0.4 ml i.p. injection of either Tween-80 (0.2%) (controls), palmitoyldeoxyguanosine (2 μmoles/mouse), palmitoyldeoxyinosine (2 μmoles/mouse), palmitoylacyclovir (2 μmoles/mouse), palmitoylarabinosylguanine (2 μmoles/mouse), palmitoylarabinosylhypoxanthine (2 μmoles/mouse), monopalmitoylguanosine 2',3'-acyclic dialcohol (2 μmoles/mouse), and palmitoyl-8-thioguanosine (2 μmoles/mouse). On days 5 and 7 following CP administration 6 animals in each of the 8 groups were bled and then sacrificed by cervical dislocation. Spleens were removed and weighed, and complete blood cell counts performed.

CCCCCCCCCCCCCCCC(=O)OC[C@H]1O[C@@H](n2cnc3c(=O)[nH]c(N)nc32)[C@H](O)[C@@H]1O
colony-forming units ([1]; day 3): 645 ± 26 colonyforming units per femur
colony-forming units ([1]; day 5): 2327 ± 121 colonyforming units per femur
colony-forming units ([1]; day 7): 1328 ± 140 colonyforming units per femur
colony-forming units ([1]; day 10): 647 ± 25 colonyforming units per femur
spleen weight ([2]; 5 μmoles/mouse/day, any time period, vs saline): significantly greater spleen weight
total white blood cell (WBC) counts ([2]; all periods except days 4-6, vs Tween 80): significantly greater
spleen weight ([2]; any period, vs Tween 80): larger spleens
total white blood cell (WBC) counts ([2]; each treatment period, vs saline): significantly greater
lymphocyte counts ([2]; treatment days 1-2 or 1-6): elevated lymphocyte counts
spleen weight ([2]; treatment days 1-4 or 1-6, among periods): greatest effect on spleen weight
total neutrophil counts ([2]; treatment days 1-6): greatest increase in total neutrophil counts
total white blood cell (WBC) counts ([2]; treatment days 1-6, vs other periods): greatest effect
total neutrophils ([2]; treatment days 1 and 2, vs saline or Tween 80): significant increase in total neutrophils
spleen weight ([3]; day 7, 2.5 μmoles/mouse/day i.p.): slight, but statistically significant, increase in spleen weight
other parameters ([3]; day 7, vs control): No other differences
Lymphocytes ([3]; day 14): significantly higher numbers
Neutrophils ([3]; day 14): significantly higher numbers
Platelets ([3]; day 14): significantly higher numbers
spleen weight ([3]; day 14): significantly heavier spleens
total leukocytes ([3]; day 14): significantly higher numbers
Platelets ([4]; day 8, 2.5 μmoles/mouse/day i.p., vs control): significantly greater
Platelets ([4]; day 10, vs control): greater numbers of platelets
spleen size ([4]; day 10, vs saline): significantly larger
number of neutrophils, fold greater than control ([4]; day 12): 3 fold
spleen weight ([4]; day 12, vs control): more than double
spleen weight ([5]; day 5, 2.5 μmoles/mouse/day i.p.): significantly greater
total leukocyte counts ([5]; day 10, vs Tween 80): significantly elevated
Neutrophils ([6]; day 7, 2.5 μmoles/mouse/day): significantly elevated
spleen weight ([6]; day 7, 2.5 μmoles/mouse/day): significantly elevated
total white blood cells ([6]; day 7, 2.5 μmoles/mouse/day): significantly elevated
platelet number ([6]; day 10): significantly greater
spleen weight [7]: significantly elevated
